Assay results reported in publication PMC12475274, “Harnessing indole scaffolds to identify small-molecule IRE1α inhibitors modulating XBP1 mRNA splicing” (Nature Communications, 2025).
Values joined by “and” are separate entries in the source; they are usually repeats but may differ in a detail not shown here. Identical values can stand only once. Like-named read-outs stand apart in the source and are kept apart here.

Assays:
A549 cells = assay: Cell viability assay (CCK-8), A549; type: cell-based, human; design: key to A549 viability: % viability vs DMSO-treated cells, blank-corrected A450; conditions: in % (unit assumed)
Protocol: (§1) Cells were collected and seeded into 96-well plates at a density of 2000–4000 cells per well and cultured overnight to allow cells to adhere. After adherence, cells were treated with the indicated compounds for 72 h. Then 20 μL CCK-8 solution (Vazyme, A311) was added into each well and incubated at 37 °C for 2–4 h. Absorbance was detected at a wavelength of 450 nm using a TECAN plate reader. Cell viability was calculated with the equation: Cell viability (%) = 100(Absorbance of treated cell - Absorbance of Blank control)/ (Absorbance of DMSO-treated cells - Absorbance of Blank control); Blank control: medium and CCK-8 solution, no cells.

MDA-MB-468 cells = assay: Cell viability assay (CCK-8), MDA-MB-468; type: cell-based, human; design: key to MDMB-468 viability: % viability vs DMSO-treated cells, blank-corrected A450; conditions: in % (unit assumed)
Protocol: as §1

HCT 116 cells = assay: Cell viability assay (CCK-8), HCT 116; type: cell-based, human; design: key to HCT 116 viability: % viability vs DMSO-treated cells, blank-corrected A450; conditions: in % (unit assumed)
Protocol: as §1

HT-29 cells = assay: Cell viability assay (CCK-8), HT-29; type: cell-based, human; design: key to HT-29 viability: % viability vs DMSO-treated cells, blank-corrected A450; conditions: in % (unit assumed)
Protocol: as §1

[1] = target: T1, phosphorylated IRE1α (p-IRE1α) (Homo sapiens, UniProt O75460); assay: FRET-based IRE1α RNase activity assay, phosphorylated IRE1α; type: biochemical
T1 construct: Human IRE1α kinase and RNase domain (residues 547–977) was subcloned into pLIB plasmid; His tag (with TEV cleavage site) (N, cleaved yes); made in house; host or cells: Sf9 insect cells, baculovirus (Bac-to-Bac)
Method in brief: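 Sf9-expressed IRE1α kinase-RNase domain (residues 547–977), fully phosphorylated fraction, 4 nM, preincubated with compound 30 min at RT, then 200 nM FAM/BHQ1 XBP1 RNA added in HEPES pH 7.5 buffer. Fluorescence (ex 485/em 535 nm) read kinetically for 1 h at RT; inhibition from linear slopes, IC50 by concentration-response fit.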

IRE1α (ERN1) = IRE1α (ERN1) (Homo sapiens, UniProt O75460); assay: LanthaScreen Eu kinase binding assay, IRE1α
Protocol: LanthaScreen^TM Eu kinase binding assays were conducted by SelectScreen Kinase Profiling Services (Thermo Fisher) using Alexa Fluor conjugated kinase tracer, tagged kinase protein, and Eu-labeled anti-tag antibody. The binding of the tracer to the kinase will form the tracer-kinase complex, resulting in a high FRET signal with the Eu-labeled anti-tag antibody. Displacement of the tracer by a kinase inhibitor led to a decreased FRET signal. […] Buffer A containing 50 mM HEPES pH 7.5, 0.01% BRIJ-35, 10 mM MgCl2, and 1 mM EGTA was used.
Kinase profiling was conducted by the SelectScreen Kinase Profiling Services (Thermo Fisher), using Z′-LYTE, Adapta, or LanthaScreen Eu Kinase Binding Assay for different kinases. The kinome phylogenetic tree was generated using the KinMap web portal.

[2] = target: T2, dephosphorylated IRE1α (547–977) (Homo sapiens, UniProt O75460); assay: FRET-based IRE1α RNase activity assay, dephosphorylated IRE1α; type: biochemical
T2 construct: Human IRE1α kinase and RNase domain (residues 547–977) was subcloned into pLIB plasmid; His tag (with TEV cleavage site) (N, cleaved yes); made in house; host or cells: Sf9 insect cells, baculovirus (Bac-to-Bac)
Method in brief: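 Dephosphorylated human IRE1α (residues 547–977, Sf9-expressed, λ-phosphatase treated), 40 nM, preincubated 30 min with compound at room temperature, then 100 nM FAM/BHQ1 XBP1 RNA added in HEPES pH 7.5 buffer. Fluorescence (485/535 nm) read kinetically for 1 h; inhibition from linear-phase slopes versus DMSO, fitted to IC50.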

[3] = Conc. 50000 nM, duplicates, read-out: IRE1a Kinase Displacement(%)

Chain of IRE1α (ERN1) (O75460 19-977): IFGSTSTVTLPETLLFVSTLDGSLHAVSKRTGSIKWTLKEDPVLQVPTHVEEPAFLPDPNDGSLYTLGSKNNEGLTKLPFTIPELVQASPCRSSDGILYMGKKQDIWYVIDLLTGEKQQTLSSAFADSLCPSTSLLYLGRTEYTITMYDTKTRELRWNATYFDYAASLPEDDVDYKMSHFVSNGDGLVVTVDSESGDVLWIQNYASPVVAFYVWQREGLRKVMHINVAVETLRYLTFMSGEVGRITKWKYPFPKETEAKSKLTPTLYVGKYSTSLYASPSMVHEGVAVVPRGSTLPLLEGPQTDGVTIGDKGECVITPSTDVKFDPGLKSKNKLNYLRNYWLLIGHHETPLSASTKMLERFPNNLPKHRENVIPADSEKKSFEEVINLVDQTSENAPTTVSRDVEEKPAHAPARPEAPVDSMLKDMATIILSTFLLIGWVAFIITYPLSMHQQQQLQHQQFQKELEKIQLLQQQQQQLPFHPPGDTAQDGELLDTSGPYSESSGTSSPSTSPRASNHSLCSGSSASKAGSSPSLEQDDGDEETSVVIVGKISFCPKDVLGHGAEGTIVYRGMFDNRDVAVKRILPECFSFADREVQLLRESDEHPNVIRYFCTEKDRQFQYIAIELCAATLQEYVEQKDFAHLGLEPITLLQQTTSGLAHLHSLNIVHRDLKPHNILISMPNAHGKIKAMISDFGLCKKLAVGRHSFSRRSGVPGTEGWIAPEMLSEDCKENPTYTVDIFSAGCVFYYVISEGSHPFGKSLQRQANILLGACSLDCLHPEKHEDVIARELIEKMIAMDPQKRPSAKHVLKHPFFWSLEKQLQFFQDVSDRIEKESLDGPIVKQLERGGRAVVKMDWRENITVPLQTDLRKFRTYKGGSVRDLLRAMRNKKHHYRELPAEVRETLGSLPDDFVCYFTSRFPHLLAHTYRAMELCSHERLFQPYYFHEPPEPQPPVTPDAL
T2 sequence (O75460 547-977): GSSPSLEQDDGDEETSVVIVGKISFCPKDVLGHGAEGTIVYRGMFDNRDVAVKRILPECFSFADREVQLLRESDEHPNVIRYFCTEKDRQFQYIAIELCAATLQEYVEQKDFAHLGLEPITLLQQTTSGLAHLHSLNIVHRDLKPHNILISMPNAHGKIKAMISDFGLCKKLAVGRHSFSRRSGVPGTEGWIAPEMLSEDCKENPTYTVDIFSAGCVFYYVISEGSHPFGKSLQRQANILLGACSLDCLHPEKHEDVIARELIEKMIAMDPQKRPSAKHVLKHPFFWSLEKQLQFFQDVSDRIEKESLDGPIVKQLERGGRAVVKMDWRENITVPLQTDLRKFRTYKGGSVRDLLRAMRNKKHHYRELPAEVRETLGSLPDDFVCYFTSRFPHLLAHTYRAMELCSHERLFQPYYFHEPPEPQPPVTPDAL
T1 sequence (O75460 547-977): as above

SMILES	A549 viability (A549 cells; 0.205761 μM)	A549 viability (A549 cells; 0.617284 μM)	A549 viability (A549 cells; 1.85185 μM)	A549 viability (A549 cells; 5.55556 μM)	A549 viability (A549 cells; 16.6667 μM)	A549 viability (A549 cells; 50 μM)	MDMB-468 viability (MDA-MB-468 cells; 0.205761 μM)	MDMB-468 viability (MDA-MB-468 cells; 0.617284 μM)	MDMB-468 viability (MDA-MB-468 cells; 1.85185 μM)	MDMB-468 viability (MDA-MB-468 cells; 5.55556 μM)	MDMB-468 viability (MDA-MB-468 cells; 16.6667 μM)	MDMB-468 viability (MDA-MB-468 cells; 50 μM)	HCT 116 viability (HCT 116 cells; 0.205761 μM)	HCT 116 viability (HCT 116 cells; 0.617284 μM)	HCT 116 viability (HCT 116 cells; 1.85185 μM)	HCT 116 viability (HCT 116 cells; 5.55556 μM)	HCT 116 viability (HCT 116 cells; 16.6667 μM)	HCT 116 viability (HCT 116 cells; 50 μM)	HT-29 viability (HT-29 cells; 0.205761 μM)	HT-29 viability (HT-29 cells; 0.617284 μM)	further results
CCOC(=O)CCc1c(C)n(C(=O)c2ccccc2)c2ccc(Br)cc12 [Compound 105]	96.121 and 99.380 and 106.104	98.783 and 101.411 and 97.532	93.780 and 103.281 and 111.131	105.404 and 106.621 and 106.322	96.476 and 98.393 and 111.165	100.539 and 103.017 and 106.219	105.638 and 111.110 and 96.794	104.047 and 105.002 and 96.794	99.021 and 100.357 and 92.786	101.502 and 93.231 and 90.241	91.131 and 95.903 and 102.075	78.343 and 88.459 and 92.404	105.479 and 107.511 and 97.213	103.773 and 98.693 and 112.553	103.848 and 104.852 and 99.659	103.874 and 100.174 and 105.429	102.870 and 107.248 and 108.126	80.557 and 78.801 and 90.315	113.182 and 110.499 and 118.448	123.469 and 111.597 and 102.062	HT-29 viability (HT-29 cells; 1.85185 μM): 133.369 and 110.621 and 100.802; HT-29 viability (HT-29 cells; 5.55556 μM): 113.223 and 102.896 and 116.984; HT-29 viability (HT-29 cells; 16.6667 μM): 110.519 and 102.367 and 115.540; HT-29 viability (HT-29 cells; 50 μM): 128.693 and 87.059 and 105.213
Cc1c(CCC(=O)O)c2cc(Br)ccc2n1C(=O)c1ccccc1 [Compound 107]	99.758 and 114.080 and 100.963	103.947 and 108.835 and 105.037	103.339 and 113.208 and 107.080	100.390 and 102.432 and 108.606	111.429 and 90.004 and 98.703	105.990 and 95.489 and 98.817	101.311 and 95.140 and 93.231	100.675 and 92.658 and 100.039	97.239 and 104.174 and 86.869	97.876 and 87.887 and 96.349	85.214 and 82.224 and 83.624	81.333 and 82.288 and 84.260	102.833 and 101.904 and 103.547	105.053 and 111.700 and 97.075	98.142 and 107.837 and 106.069	107.561 and 110.157 and 105.065	99.383 and 99.772 and 101.528	89.136 and 87.455 and 94.529	107.531 and 106.250	105.681 and 105.762	HT-29 viability (HT-29 cells; 1.85185 μM): 112.450 and 111.942; HT-29 viability (HT-29 cells; 5.55556 μM): 121.172 and 105.478; HT-29 viability (HT-29 cells; 16.6667 μM): 115.825 and 113.345; HT-29 viability (HT-29 cells; 50 μM): 110.661 and 115.500
COc1ccc2c(c1)c(CCC(=O)O)c(C)n2C(=O)c1ccc(S(=O)(=O)F)cc1 [IA06]	–	–	–	–	–	–	–	–	–	–	–	–	–	–	–	–	–	–	–	–	IC50 ([1]; p-IRE1a IC50, individual replicates (n1-n4), FRET assay, source data, unit from Fig. 3): 11.1 µM and 6.78 µM and 5.45 µM; IC50 ([1]; p-IRE1α IC50, FRET assay, RNase activity, mean (± SEM)): 7.79 µM; inhibition at 50 µM (IRE1α (ERN1); 50 μM, read-out: kinase inhibition at highest tested concentration): 23%; inhibition at 50 µM (IRE1α (ERN1); [3]): 17%; IC50 ([2]; IRE1a IC50, individual replicates (n1-n4), FRET assay, source data, unit from Fig. 3 / sheet Fig. 2b): 9.65 µM and 7.76 µM and 4.55 µM; IC50 ([2]; IRE1α IC50, FRET assay, RNase activity, mean (± SEM)): 7.32 µM
COc1ccc2c(c1)c(CCC(=O)O)c(C)n2C(=O)c1cc2ccccc2s1 [IA10]	–	–	–	–	–	–	–	–	–	–	–	–	–	–	–	–	–	–	–	–	IC50 ([1]; FRET assay, read-out: p-IRE1α IC50 (RNase activity)): 1.97 µM; IC50 ([1]; FRET assay, source data, unit from Fig. 3, read-out: p-IRE1a IC50, individual replicates (n1-n4)): 3.01 µM and 1.92 µM and 0.985 µM; inhibition at 5.56 µM (IRE1α (ERN1); Conc. 5560 nM, duplicates, read-out: IRE1a Kinase Displacement(%)): 35%; inhibition at 16.7 µM (IRE1α (ERN1); Conc. 16700 nM, duplicates, read-out: IRE1a Kinase Displacement(%)): 63%; inhibition at 50 µM (IRE1α (ERN1); [3]): 58%; IC50 (IRE1α (ERN1); IRE1α kinase domain, read-out: IC50 (kinase binding), LanthaScreen Eu kinase binding): 9.61 µM; IC50 ([2]; FRET assay, dephosphorylated IRE1α, read-out: IRE1α IC50 (RNase activity)): 1.81 µM; IC50 ([2]; FRET assay, source data, unit from Fig. 3 / sheet Fig. 2b, read-out: IRE1a IC50, individual replicates (n1-n4)): 0.727 µM and 2.78 µM and 2.47 µM and 1.25 µM
